Laboratory results from patent US7348425B2, “Inhibitors of HCV replication” (Bristol-Myers Squibb Company, priority 2004, dated 2008).

How the values were obtained:
[1] = tested on: HCV replicon; experiment: HCV replicon FRET assay; type: cell-based; conditions: Hepatitis C virus; FRET assay; read-out: EC50
Procedure: The IC50 values for compounds were determined using seven different [I]. IC50 values were calculated from the inhibition using the formula y=A+((B−A)/(1+((C/x)^D))). FRET Assay Preparation. To perform the HCV FRET screening assay, 96-well cell culture plates were used. The FRET peptide (Anaspec, Inc.) (Taliani et al., Anal. Biochem. 240:60-67 (1996), hereby incorporated by reference in its entirety) contains a fluorescence donor, EDANS, near one end of the peptide and an acceptor, DABCYL, near the other end. The fluorescence of the peptide is quenched by […] resonance energy transfer (RET) between the donor and the acceptor, but as the NS3 protease cleaves the peptide the products are released from RET quenching and the fluorescence of the donor becomes apparent. The assay reagent was made as follows: 5× cell Luciferase cell culture lysis reagent from Promega (#E153A) diluted to 1× with dH2O, NaCl added to 150 mM final, the FRET peptide diluted to 20 uM final from a 2 mM stock.
To prepare plates, HCV replicon cells, with or without a Renilla luciferase reporter gene, were trypsinized and placed into each well of a 96-well plate with titrated test compounds added in columns 3 through 12; columns 1 and 2 contained a control compound (HCV protease inhibitor), and the bottom row contained cells without compound. The plates were then placed in a CO2 incubator at 37 degrees C.
Assays. Subsequent to addition of the test compounds described above (FRET Assay Preparation), at various times the plate was removed and Alamar blue solution (Trek Diagnostics, #00-100) was added per well as a measure of cellular toxicity. After reading in a Cytoflour 4000 instrument (PE Biosystems), plates were rinsed with PBS and then used for FRET assay by the addition of 30 ul of the FRET peptide assay reagent described above (FRET Assay Preparation) per well. The plate was then placed into the Cytoflour 4000 instrument which had been set to 340 excite/490 emission, automatic mode for 20 cycles and the plate read in a kinetic mode. Typically, the signal to noise using an endpoint analysis after the reads was at least three-fold. Alternatively, after Alamar blue reading, plates were rinsed with PBS, 50 ul of DMEM (high glucose) without phenol red was added and plates were then used for luciferase assay using the Promega Dual-Glo Luciferase Assay System.
Compound analysis was determined by quantification of the relative HCV replicon inhibition and the relative cytotoxicity values. To calculate cytoxicity values, the average Alamar Blue fluorescence signals from the control wells were set as 100% non-toxic. The individual signals in each of the compound test wells were then divided by the average control signal and multiplied by 100% to determine […]. To calculate the HCV replicon inhibition values, an average background value was obtained from the two wells containing the highest amount of HCV protease inhibitor at the end of the assay period. These numbers were similar to those obtained from naïve Huh-7 cells.
The background numbers were then subtracted from the average signal obtained from the control wells and this number was used as 100% activity. The individual signals in each of the compound test wells were then divided by the averaged control values after background subtraction and multiplied by 100% to determine percent activity. EC50 values for a protease inhibitor titration were calculated as the concentration which caused a 50% reduction in FRET or luciferase activity. The two numbers generated for the compound plate, percent cytoxicity and percent activity were used to determine compounds of interest for further analysis.

[2] = molecular target: T1, HCV NS5B RdRp genotype 1b (Hepatitis C virus genotype 1b, UniProt Q9WMX2); experiment: Modified HCV NS5B RdRp enzyme assay (with preincubation); type: biochemical; conditions: modified method (with preincubation)
T1 construct: The protein was expressed with an 18 amino acid C-terminal truncation to enhance the solubility; made in house; host or cells: E. coli BL21 (DE3), pET21a
Procedure: HCVNS5B RdRp cloning, expression, and purification. The cDNA encoding the NS5B protein of HCV, genotype 1b, was cloned into the pET21a expression vector. The protein was expressed with an 18 amino acid C-terminal truncation to enhance the solubility. The E. coli competent cell line BL21 (DE3) was used for expression of the protein. Cultures were grown at 37° C. for ˜4 hours until the cultures reached an optical density of 2.0 at 600 nm. The cultures were cooled to 20° C. and induced with 1 mM IPTG. Fresh ampicillin was added to a final concentration of 50 μg/ml and the cells were grown overnight at 20° C.
Cell pellets (3 L) were lysed for purification to yield 15-24 mgs of purified NS5B. The lysis buffer consisted of 20 mM Tris-HCl, pH 7.4, 500 mM NaCl, 0.5% triton X-100, 1 mM DTT, 1 mM EDTA, 20% glycerol, 0.5 mg/ml lysozyme, 10 mM MgCl2, 15 ug/ml deoxyribonuclease I, and Complete TM protease inhibitor tablets (Roche). After addition of the lysis buffer, frozen cell pellets were resuspended using a tissue homogenizer. To reduce the viscosity of the sample, aliquots of the lysate were sonicated on ice using a microtip attached to a Branson sonicator. The sonicated lysate was centrifuged at 100,000×g for 1 hr at 4° C. and filtered through a 0.2 μm filter unit (Corning).
The protein was purified using three sequential chromatography steps: Heparin sepharose CL-6B, polyU sepharose 4B, and Hitrap SP sepharose (Pharmacia). The chromatography buffers were identical to the lysis buffer but contained no lysozyme, deoxyribonuclease I, MgCl2 or protease inhibitor and the NaCl concentration of the buffer was adjusted according to the requirements for charging the protein onto the column. Each column was eluted with a NaCl gradient which varied in length from 5-50 column volumes depending on the column type. After the final chromatography step, the resulting purity of the enzyme is >90% based on SDS-PAGE analysis. The enzyme was aliquoted and stored at −80° C.
Standard HCV NS5B RdRp enzyme assay. HCV RdRp genotype Ib assays were run in a final volume of 60 μl in 96 well plates (Costar 3912). The assay buffer is composed of 20 mM Hepes, pH 7.5, 2.5 mM KCl, 2.5 mM MgCl2, 1 mM DTT, 1.6 U RNAse inhibitor (Promega N2515), 0.1 mg/ml BSA (Promega R3961), and 2% glycerol. All compounds were serially diluted (3-fold) in DMSO and diluted further in water such that the final concentration of DMSO in the assay was 2%. HCV RdRp genotype 1b enzyme was used at a final concentration of 28 nM. A polyA template was used at 6 nM, and a biotinylated oligo-dT12 primer was used at 180 nM final concentration. Template was obtained commercially (Amersham 27-4110). Biotinylated primer was prepared by Sigma Genosys. ^3H-UTP was used at 0.6 μCi (0.29 μM total UTP). Reactions were initiated by the addition of enzyme, incubated at 30° C. for 60 min, and stopped by adding 25 μl of 50 mM EDTA containing SPA beads (4 μg/μl, Amersham RPNQ 0007). Plates were read on a Packard Top Count NXT after >1 hr incubation at room temperature.
Modified HCV NS5B RdRp enzyme assay. A modified enzyme assay was performed essentially as described for the standard enzyme assay except for the following: The biotinylated oligo dT12 primer was precaptured on streptavidin-coated SPA beads by mixing primer and beads in assay buffer and incubating at room temperature for one hour. Unbound primer was removed after centrifugation. The primer-bound beads were resuspended in 20 mM Hepes buffer, pH 7.5 and used in the assay at final concentrations of 20 nM primer and 0.67 μg/μl beads. Order of addition in the assay: enzyme (14 nM) was added to diluted compound followed by the addition of a mixture of template (0.2 nM), ^3H-UTP (0.6 μCi, 0.29 μM), and primer-bound beads, to initiate the reaction; concentrations given are final. Reactions were allowed to proceed for 4 hours at 30° C.
The IC50 values for compounds were determined using seven different [I]. […]

T1 sequence (Q9WMX2 2420-2992): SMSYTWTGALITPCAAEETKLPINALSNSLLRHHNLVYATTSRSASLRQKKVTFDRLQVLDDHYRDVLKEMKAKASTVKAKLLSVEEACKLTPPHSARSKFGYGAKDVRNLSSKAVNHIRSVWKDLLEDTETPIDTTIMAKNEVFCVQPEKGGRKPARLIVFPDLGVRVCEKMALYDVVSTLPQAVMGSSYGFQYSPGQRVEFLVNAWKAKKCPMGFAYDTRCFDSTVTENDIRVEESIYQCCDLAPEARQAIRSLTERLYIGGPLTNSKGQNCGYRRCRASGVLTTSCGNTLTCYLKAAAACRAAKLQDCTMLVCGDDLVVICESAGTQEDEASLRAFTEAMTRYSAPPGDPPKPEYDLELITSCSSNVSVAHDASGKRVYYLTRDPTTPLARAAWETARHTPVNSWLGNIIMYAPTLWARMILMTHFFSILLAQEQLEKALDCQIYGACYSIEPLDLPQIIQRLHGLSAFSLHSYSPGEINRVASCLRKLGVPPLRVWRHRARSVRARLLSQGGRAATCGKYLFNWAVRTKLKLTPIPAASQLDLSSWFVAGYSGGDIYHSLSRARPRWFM

Structure (SMILES) | EC50 [1] [µM] | IC50 [2] [µM]
O=C(NC1(C(=O)Nc2ccc(-c3csc(C(=O)O)n3)cc2)CCCC1)c1ccc2c(C3CCCCC3)c3n(c2c1)CCCc1ccccc1-3 | 0.01 to 1 | 0.02 to 1
O=C(O)c1ccc2c(C3CCCCC3)c3n(c2c1)C/C=C\CN(CCO)c1ccccc1-3 | 1 to 10 | > 1
O=C(O)c1ccc2c(C3CCCCC3)c3n(c2c1)CCCCN(CCO)c1ccccc1-3 | 1 to 10 | > 1
O=C1Cn2c(c(C3CCCCC3)c3ccc(C(=O)NC4(C(=O)Nc5ccc(-c6cscn6)cc5)CCCC4)cc32)-c2ccccc2N1 | 0.01 to 1 | 0.02 to 1
CC(C)(C)OC(=O)N1C/C=C\Cn2c(c(C3CCCCC3)c3ccc(C(=O)O)cc32)-c2cnccc21 | > 10 | > 1
O=C(O)/C=C/c1ccc(NC(=O)C2(NC(=O)c3ccc4c(C5CCCCC5)c5n(c4c3)CCOc3ncccc3-5)CCCC2)cc1 | 0.01 to 1 | 0.02 to 1
CC(C)(C)OC(=O)N1CCCCn2c(c(C3CCCCC3)c3ccc(C(=O)O)cc32)-c2cnccc21 | > 10 | > 1
O=C(O)/C=C/c1ccc(NC(=O)C2(NC(=O)c3ccc4c(C5CCCCC5)c5n(c4c3)CCCN(CCO)c3ccccc3-5)CCCC2)cc1 | 0.01 to 1 | 0.02 to 1
COC(=O)c1ccc2c(C3CCCCC3)c3n(c2c1)CC(C(=O)O)Cc1ccccc1-3 (centres unmarked) | > 10 | > 1
O=C(O)c1ccc2c(C3CCCCC3)c3c4ccccc4ncn3c2c1 | > 10 | > 1
COC(=O)/C=C/c1ccc(NC(=O)C2(NC(=O)c3ccc4c(C5CCCCC5)c5c6ccccc6ncn5c4c3)CCCC2)cc1 | 1 to 10 | > 1
NC(=O)C1Cc2ccccc2-c2c(C3CCCCC3)c3ccc(C(=O)NC4(C(=O)Nc5ccc(/C=C/C(=O)O)cc5)CCCC4)cc3n2C1 (centres unmarked) | 0.01 to 1 | 0.02 to 1
CC(C)(C)OC(=O)N1CC(O)Cn2c(c(C3CCCCC3)c3ccc(C(=O)O)cc32)-c2ccccc21 (centres unmarked) | 1 to 10 | 0.02 to 1
O=C(O)c1ccc2c(C3CCCCC3)c3n(c2c1)CC(O)CNc1ccccc1-3 (centres unmarked) | 1 to 10 | 0.02 to 1
O=C(O)c1ccc2c(C3CCCCC3)c3n(c2c1)C[C@@H](O)[C@@H](O)c1ncccc1-3 | 1 to 10 | 0.02 to 1
CNC(=O)C1Cc2ccccc2-c2c(C3CCCCC3)c3ccc(C(=O)NC4(C(=O)Nc5ccc(/C=C/C(=O)O)cc5)CCCC4)cc3n2C1 (centres unmarked) | 0.01 to 1 | 0.02 to 1

Structure (SMILES) | EC50 [1] [µM] | IC50 [2] [µM]
CN1CCN(C(=O)C2Cc3ccccc3-c3c(C4CCCCC4)c4ccc(C(=O)NC5(C(=O)Nc6ccc(/C=C/C(=O)O)cc6)CCCC5)cc4n3C2)CC1 (centres unmarked) | 0.01 to 1 | 0.02 to 1
CN(C)CCNC(=O)C1Cc2ccccc2-c2c(C3CCCCC3)c3ccc(C(=O)NC4(C(=O)Nc5ccc(/C=C/C(=O)O)cc5)CCCC4)cc3n2C1 (centres unmarked) | 0.01 to 1 | 0.02 to 1
O=C(O)/C=C/c1ccc(NC(=O)C2(NC(=O)c3ccc4c(C5CCCCC5)c5n(c4c3)CC(C(=O)N3CCC(N4CCCC4)CC3)Cc3ccccc3-5)CCCC2)cc1 (centres unmarked) | 0.01 to 1 | 0.02 to 1
O=C(O)/C=C/c1ccc(NC(=O)C2(NC(=O)c3ccc4c(C5CCCCC5)c5n(c4c3)CC(C(=O)N3CCCCC3)Cc3ccccc3-5)CCCC2)cc1 (centres unmarked) | 0.01 to 1 | 0.02 to 1
O=C(O)/C=C/c1ccc(NC(=O)C2(NC(=O)c3ccc4c(C5CCCCC5)c5n(c4c3)CC(C(=O)N3CCCC(O)C3)Cc3ccccc3-5)CCCC2)cc1 (centres unmarked) | 0.01 to 1 | 0.02 to 1
O=C(O)/C=C/c1ccc(NC(=O)C2(NC(=O)c3ccc4c(C5CCCCC5)c5n(c4c3)CC(C(=O)N3CCN(c4ccncc4)CC3)Cc3ccccc3-5)CCCC2)cc1 (centres unmarked) | 0.01 to 1 | 0.02 to 1
COC(=O)/C=C/c1ccc(NC(=O)C2(NC(=O)c3ccc4c(C5CCCCC5)c5n(c4c3)C[C@@H](O)[C@@H](O)c3ncccc3-5)CCCC2)cc1 | 0.01 to 1 | 0.02 to 1
O=C(O)/C=C/c1ccc(NC(=O)C2(NC(=O)c3ccc4c(C5CCCCC5)c5n(c4c3)C[C@@H](O)[C@@H](O)c3ncccc3-5)CCCC2)cc1 | 0.01 to 1 | 0.02 to 1
COC(=O)c1ccc2c(C3CCCCC3)c3n(c2c1)C[C@@H](O)[C@@H](O)c1ccccc1-3 | 1 to 10 | > 1
O=C(O)c1ccc2c(C3CCCCC3)c3n(c2c1)C[C@@H](O)[C@@H](O)c1ccccc1-3 | 1 to 10 | 0.02 to 1
CN(C(=O)c1ccc2c(C3CCCCC3)c3n(c2c1)CCCc1ccccc1-3)C1(C(=O)O)CCCC1 | > 10 | 0.02 to 1
CN(C)S(=O)(=O)NC(=O)c1ccc2c(C3CCCCC3)c3n(c2c1)C[C@@H](O)[C@@H](O)c1ccccc1-3 | 0.01 to 1 | > 1
COC(=O)/C=C/c1ccc(NC(=O)C2(NC(=O)c3ccc4c(C5CCCCC5)c5n(c4c3)C[C@@H](O)[C@@H](O)c3ccccc3-5)CCCC2)cc1 | < 0.1 | 0.02 to 1
O=C1Cc2ccccc2-c2c(C3CCCCC3)c3ccc(C(=O)O)cc3n2C1 | 1 to 10 | 0.02 to 1
O=C(O)/C=C/c1ccc(NC(=O)C2(NC(=O)c3ccc4c(C5CCCCC5)c5n(c4c3)C[C@@H](O)[C@@H](O)c3ccccc3-5)CCCC2)cc1 | 0.01 to 1 | 0.02 to 1
